pIC50: −log10 of the molar value. Read-outs that look alike come from different tables or passages of the source.

One may read the pIC50 as the negative decadic logarithm of the IC50, by convention in mol/L.

One test deals with T1, human FAAH (Homo sapiens, UniProt O00519).
T1 construct: expressed in transfected cells
T1 sequence (O00519 1-579): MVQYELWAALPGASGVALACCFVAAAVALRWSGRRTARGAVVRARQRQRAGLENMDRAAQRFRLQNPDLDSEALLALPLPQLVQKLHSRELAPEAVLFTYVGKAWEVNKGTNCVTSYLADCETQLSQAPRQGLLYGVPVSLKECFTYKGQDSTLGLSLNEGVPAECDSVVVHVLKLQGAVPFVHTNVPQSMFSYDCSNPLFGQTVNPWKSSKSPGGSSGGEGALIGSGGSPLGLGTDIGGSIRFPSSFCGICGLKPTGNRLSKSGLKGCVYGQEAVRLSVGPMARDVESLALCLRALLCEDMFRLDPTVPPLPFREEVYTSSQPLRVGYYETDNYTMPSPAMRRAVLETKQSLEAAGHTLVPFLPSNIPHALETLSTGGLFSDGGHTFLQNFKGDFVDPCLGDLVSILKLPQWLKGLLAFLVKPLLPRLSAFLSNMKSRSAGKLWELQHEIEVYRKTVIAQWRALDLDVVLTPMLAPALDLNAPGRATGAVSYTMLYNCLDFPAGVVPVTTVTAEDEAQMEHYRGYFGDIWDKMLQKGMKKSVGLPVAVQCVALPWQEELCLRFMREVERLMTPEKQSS
As to the kind of experiment: Assay Method 1: FAAH assay, hydrolysis of 3H-anandamide by homogenate of SK-N-MC cells transfected with human FAAH. Type of test: biochemical. In a few lines:
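Homogenate of SK-N-MC cells stably expressing human FAAH (G418-selected clones) incubated with compound and 80 nM [1-3H-ethanolamine]anandamide for 1 h at rt. Released 3H-ethanolamine separated from substrate by activated-charcoal filtration, then counted by scintillation.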

The target in another test is T2, rat FAAH (Rattus norvegicus, UniProt P97612).
T2 construct: expressed in transfected cells
T2 sequence (P97612 1-579): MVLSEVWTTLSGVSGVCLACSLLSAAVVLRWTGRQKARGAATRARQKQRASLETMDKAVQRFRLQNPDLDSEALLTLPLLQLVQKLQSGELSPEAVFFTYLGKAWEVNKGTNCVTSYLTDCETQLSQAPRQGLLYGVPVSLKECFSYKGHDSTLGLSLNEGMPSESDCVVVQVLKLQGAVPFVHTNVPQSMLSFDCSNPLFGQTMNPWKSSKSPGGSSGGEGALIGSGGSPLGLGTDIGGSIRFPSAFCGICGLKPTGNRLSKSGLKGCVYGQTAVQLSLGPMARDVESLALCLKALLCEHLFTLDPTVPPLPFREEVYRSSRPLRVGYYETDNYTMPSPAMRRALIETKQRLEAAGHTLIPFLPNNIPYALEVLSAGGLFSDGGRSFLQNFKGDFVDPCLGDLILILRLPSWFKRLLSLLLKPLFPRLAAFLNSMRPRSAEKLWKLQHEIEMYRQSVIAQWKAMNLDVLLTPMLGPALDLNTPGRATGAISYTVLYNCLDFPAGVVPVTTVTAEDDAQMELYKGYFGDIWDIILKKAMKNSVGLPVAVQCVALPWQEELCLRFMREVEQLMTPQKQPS
Kind of test: Assay Method 2: FAAH assay, hydrolysis of 3H-anandamide by homogenate of SK-N-MC cells transfected with rat FAAH. The format is biochemical. Particulars: T84 or transfected SK-N-MC cell homogenate, 3H-AEA tracer 80 nM, rt 1 h, pH 9. Put shortly: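 Rat FAAH activity from homogenate of G418-selected, electroporated SK-N-MC clones was measured as release of radiolabelled ethanolamine from 3H-anandamide. After 1 h at rt, charcoal filtration retained substrate, and scintillation counting of the flow-through gave the read-out.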

The mark [1] stands for this setting: human FAAH, T84 or transfected SK-N-MC cell homogenate, 3H-AEA tracer 80 nM, rt 1 h, pH 9, read-out: Assay 1 IC50.

With `CC(C)(C)OC(=O)N1CCC(CCCC(=O)c2ncc(C(=O)O)o2)CC1` [Example 130, 4-[4-(5-Carboxy-oxazol-2-yl)-4-oxo-butyl]-piperidine-1-carboxylic acid tert-butyl ester], the pIC50 at human FAAH (setting [1]) is 7.52; at rat FAAH, 7.72.

Regarding `COc1ccc(CN2CCC(CCCC(=O)c3ncco3)CC2)cc1` [Example 16, 4-[1-(4-Methoxy-benzyl)-piperidin-4-yl]-1-oxazol-2-yl-butan-1-one], the pIC50 on human FAAH is 6.88; at rat FAAH, 6.18.

`O=C(CCCC1CCN(Cc2ccc3c(c2)OCO3)CC1)c1ncco1` [Example 14, 4-(1-Benzo[1,3]dioxol-5-ylmethyl-Piperidin-4-yl)-1-oxazol-2-yl-butan-1-one]: the pIC50 on human FAAH (setting [1]) is 7.07; on rat FAAH, 6.00.

With `O=C(CCCC1CCN(S(=O)(=O)c2ccc(Cl)c(Cl)c2)CC1)c1ncco1` [Example 62, 4-[1-(3,4-Dichloro-benzenesulfonyl)-piperidin-4-yl]-1-oxazol-2-yl-butan-1-one], the pIC50 at human FAAH (setting [1]) was 7.85; on rat FAAH it was 6.96.

For the compound `O=C(CCCC1CCN(C(=O)COc2ccc(Cl)cc2)CC1)c1ncco1` [Example 35, 4-{1-[2-(4-Chloro-phenoxy)-acetyl]-piperidin-4-yl}-1-oxazol-2-yl-butan-1-one], the pIC50 at human FAAH (setting [1]) is 7.72; on rat FAAH it was 7.42.

Turning to `Cc1cccc2cc(CN3CCC(CCCC(=O)c4ncco4)CC3)c(Cl)nc12` [Example 99, 4-[1-(2-Chloro-8-methyl-quinolin-3-ylmethyl)-piperidin-4-yl]-1-oxazol-2-yl-butan-1-one], the pIC50 is 8.30 on human FAAH (setting [1]) and 8.10 against rat FAAH.

Regarding `O=C(CCCC1CCN(C(=O)CCc2ccc(Cl)cc2)CC1)c1ncco1` [Example 46, 4-{1-[3-(4-Chloro-phenyl)-propionyl]-piperidin-4-yl}-1-oxazol-2-yl-butan-1-one], the values for the pIC50 on human FAAH (setting [1]) and on rat FAAH were 7.92 and 8.52, respectively.

Values taken from patent US20090111778A1, “2-Keto-Oxazoles as Modulators of Fatty Acid Amide Hydrolase” (priority 2005, published 2009).
